Data taken from PMC6348444, “New Water-Soluble Copper(II) Complexes with Morpholine–Thiosemicarbazone Hybrids: Insights into the Anticancer and Antibacterial Mode of Action” (Journal of Medicinal Chemistry, 2018).
Values after ≈ are worked out from the molar mass of the structure shown. Read-outs that look alike come from different tables or passages of the source. Each block holds one compound with its values, some of them ahead of it.

Tests used:
[1] = tested on: Pseudomonas aeruginosa PAO1 CECT 4122 (ATCC 15692); assay: MIC microdilution, P. aeruginosa; format: cell-based; conditions: planktonic cells; for MIC50 / MIC: Pseudomonas aeruginosa; for MIC50 / P. aeruginosa MIC50: growth inhibited at 50%; for MIC / P. aeruginosa MIC100: lowest concentration completely inhibiting growth; for MIC: read-out: P. aeruginosa MIC100
Description: (§1) Wild-type P. aeruginosa PAO1 strain CECT 4122 (ATCC 15692) and S. aureus CECT 86 (ATCC 12600) were obtained from the Spanish Type Culture Collection (CECT). All strains were routinely cultivated in TSB medium (Sharlab, Spain) at 37 °C. MIC assays were determined by the microdilution method using TSB broth following the method described by the Clinical and Laboratory standards Institute.[94] In brief, compounds were diluted in a 96-well microtiter plate (tissue culture-treated polystyrene; […]

[2] = tested on: Staphylococcus aureus CECT 86 (ATCC 12600); assay: MIC microdilution, S. aureus; format: cell-based; conditions: planktonic cells; for MIC50 / MIC: Staphylococcus aureus; for MIC50 / S. aureus MIC50: growth inhibited at 50%; for MIC / S. aureus MIC100: lowest concentration completely inhibiting growth; for MIC: read-out: S. aureus MIC100
Description: as §1

[3] = tested on: A2780 cells; assay: MTT cytotoxicity assay, A2780; format: cell-based, human
[4] = tested on: A2780cisR cells; assay: MTT cytotoxicity assay, A2780cisR; format: cell-based, human; conditions: for IC50: MTT assay, 72 h exposure, cisplatin-resistant A2780cisR, read-out: IC50 A2780cis; for RF (resistance factor): IC50(A2780cisR)/IC50(A2780)
[5] = n-octanol/water distribution coefficient, shake-flask; format: physicochemical; conditions: n-octanol/buffered aqueous solution, pH 7.40, UV-vis; for logD: pH 7.4, read-out: log D7.4
Description: The titrations were carried out under a nitrogen atmosphere.

[6] = tested on: HEK293 cells; assay: MTT cytotoxicity assay, HEK293; format: cell-based, human; conditions: for IC50: MTT assay, 72 h exposure, noncancerous cells; for SF (selectivity factor): IC50(HEK293)/IC50(A2780)
[7] = T = 298 K, I = 0.10 M (KCl)
[8] = tested on: A2780 cells; assay: Cellular accumulation of Cu by ICP-MS; format: cell-based, human; conditions: 24 h exposure, 1 μM
Text: The ability of anticancer drugs to penetrate biological membranes, tissues, and barriers underlies their biological, pharmacokinetic, and metabolic properties. These properties can be predicted by calculating physicochemical characteristics of drug candidates using molecular descriptors.[30] […] The results are shown in Table S7 in the Supporting Information. On the basis of the calculated physicochemical parameters, we determined if novel compounds belonged to the drug-like chemical space, which is commonly defined by the well-known Lipinski rule, or to the known drug space (KDS), which includes all small compounds in medical use.[31] […] Following the calculations, we determined the lipophilicity of all compounds experimentally (log D7.4, Tables 1 and 2). It is known that cancer cells accumulate hydrophilic compounds to a smaller extent relative to hydrophobic compounds, thereby affecting their activity. […] As expected, proligands were more lipophilic than the corresponding Cu(II) species, which are positively charged at physiological pH (Figure 3b). […] The lipophilicity of 2–5 increased in the following order 4 < 2 < 3 < 5, and correlated well with their cytotoxicity in cancer cells, with the exception of 3. Subsequently, we determined the total cellular accumulation of Cu in A2780 cells by ICP–MS upon 24 h exposure to 1–6 in comparison with CuCl2 (Table 2). […] The accumulation increased in the order 6 < 1 < 3 < 4 < 2 < 5.
Cellular accumulation of 1–6 was determined in A2780 cells. Cells were seeded into Cellstar 6-well plates (Greiner Bio-one) at a density of 60 × 10^4 cells/well (2 mL per well). After the cells were allowed to resume exponential growth for 24 h, they were exposed to 1–6 at 1 μM for 24 h at 37 °C. The cells were washed twice with 1 mL of PBS and lysed with RIPA lysis buffer for 5–10 min at 4 °C. The cell lysates were scraped from the wells and transferred to separate 1.5 mL microtubes. The supernatant was then collected after centrifugation (13 000 rpm, 4 °C for 15 min) and total protein content of each sample was quantified via Bradford’s assay. Cell lysates were transferred to 2 mL glass vials and then digested with ultrapure 65% HNO3 at 100 °C for 24 h. The resulting solution was diluted to 1 mL (2–4% v/v HNO3) with ultrapure Milli-Q water. Cu content of each sample was quantified by ICP–MS. In was used as an internal standard. Cu and In were measured at m/z 64 and m/z 115, respectively. Metal standards for calibration curve (0, 0.5, 1, 2, 5, 10, 20, and 40 ppb) were freshly prepared before each measurement. All readings were made in triplicates in He mode. For temperature-dependent cellular accumulation experiments, A2780 cells were seeded into 35 n 10 mm tissue culture plates at a density of 60 0 10^4 cells/plate. After the cells were allowed to resume exponential growth for 24 h, they were exposed to 2 at 3 μM for 10, 30, 60, and 120 min at 37 and 4 °C. The subsequent analysis was performed as described above. For energy-dependent experiments, A2780 cells were seeded into 35 5 10 mm tissue culture plates at a density of 1 0 10^6 cells/plate. After the cells were allowed to resume exponential growth for 24 h, they were preincubated with oligomycin (5 μM) for 1 or 4 h or with cycloheximide (100 μM) for 4 h and further co-incubated with 3 μM of 2 at 37 °C. To induce total starvation, after the cells were allowed to resume exponential growth for 24 h, RPMI media was replaced with HBSS, and cells were preincubated in HBSS for 1 h and further incubated with 3 μM of 2 for 1 h at 37 °C. The subsequent analysis was performed as described above.

[9] = Cyclic voltammetry, redox potentials; format: physicochemical; conditions: first reduction step
Description: To assess the redox properties of 1-6, detailed electrochemical and spectroscopic studies in various solvents were performed using cyclic voltammetry as well as EPR-spectroelectrochemistry. Additionally, the UV-vis spectra of 1-5 were measured (Figure S8). […] The second reduction step occurred at -1.8 V versus Fc^+/Fc (-1.16 V vs NHE) and was less reversible, indicating a ligand-based reduction. […] In aqueous solutions, the reduction potentials shifted to the less negative values, and reduction was less reversible as shown for 2 in Figure S10. […] Cyclic voltammetric experiments were performed as described previously.[46] The cyclic voltammograms were measured in the cathodic region in different solvents (DMSO, methanol, DMSO/H2O). The analytical purity grade LiClO4 (Sigma-Aldrich) and distilled and deionized water were used for preparation of 1 mM aqueous solutions of the investigated complexes 1-6. EPR spectra were recorded with the EMX plus. In situ UV-vis-NIR spectroelectrochemical measurements were performed on a spectrometer (Avantes, Model AvaSpec-2048x14-USB2 in the spectroelectrochemical cell kit ([…]3)) with the Pt-microstructured honeycomb working electrode, purchased from Pine Research Instrumentation. The cell was positioned in the CUV-UV Cuvette Holder (Ocean Optics) connected to the diode-array UV-vis-NIR spectrometer by optical fibers. UV-vis-NIR spectra were processed using the AvaSoft 7.7 software package. Halogen and deuterium lamps were used as light sources (Avantes, Model AvaLight-DH-S-BAL). The in situ EPR spectroelectrochemical experiments were carried out under an argon atmosphere in the EPR flat cell equipped with a large platinum mesh working electrode. The freshly prepared solutions were carefully purged with argon and the electrolytic cell was polarized in the galvanostatic mode directly in the cylindrical EPR cavity TM-110 (ER 4103 TM), and the EPR spectra were measured in situ.

[10] = Homo sapiens, A2780, 72 h exposure

SMILES: O=C(O)c1cn(C2CC2)c2cc(N3CCNCC3)c(F)cc2c1=O [CPX, ciprofloxacin, reference compound]
MIC50 [1]: 0.5 µg/mL (≈ 1.51 µM)
MIC [1]: 2 µg/mL (≈ 6.04 µM)
MIC50 [2]: 0.5 µg/mL (≈ 1.51 µM)
MIC [2]: 1 µg/mL (≈ 3.02 µM)

SMILES: NC(=S)NN=Cc1ccc(CN2CCOCC2)cn1 [HL^1, 5-(Morpholinomethyl)pyridine-2-carboxaldehyde Thiosemicarbazone]
IC50 [3, 10]: 7600 ± 1900 nM
MIC50 [1]: > 500 µg/mL
MIC [1]: > 500 µg/mL
IC50 ([4]; Homo sapiens): 13000 ± 1000 nM
logD [5]: 0.46
MIC50 [2]: 100 µg/mL (≈ 358 µM)
MIC [2]: > 400 µg/mL
IC50 ([6]; Homo sapiens, HEK293): 9100 ± 1700 nM

SMILES: N.N.[Cl][Pt][Cl] [cisplatin, reference compound]
IC50 ([3]; 72 h exposure): 440 ± 130 nM
RF (resistance factor) [4]: 10.5
IC50 [4]: 4600 ± 300 nM

SMILES: [Cl][Cu][S]C(=NN=Cc1ccc(CN2CCOCC2)cn1)N1CCOCC1 [complex 4, [Cu(L^4)Cl]]
IC50 ([3]; 72 h exposure): 80 ± 10 nM
cellular accumulation A2780 [8]: 3.2 ± 0.7 nmol Cu/mg protein
E1/2 Red1 (DMSO) vs Fc+/Fc ([9]; DMSO, vs Fc+/Fc): –0.80 V
E1/2 Red1 (DMSO) vs NHE ([9]; DMSO, vs NHE (in brackets)): –0.16 V
E1/2 Red1 (MeOH) vs Fc+/Fc ([9]; MeOH, vs Fc+/Fc): –0.49 V
E1/2 Red1 (MeOH) vs NHE ([9]; MeOH, vs NHE (in brackets)): +0.15 V
P. aeruginosa MIC50 [1]: 100 µg/mL
P. aeruginosa MIC100 [1]: 400 µg/mL
RF (resistance factor) [4]: 3.3
IC50 [4]: 260 ± 40 nM
log D7.4 [5]: +0.12 ± 0.01
S. aureus MIC50 [2]: 5 µg/mL
S. aureus MIC100 [2]: 10 µg/mL
SF (selectivity factor) [6]: 3.0
IC50 [6]: 240 ± 20 nM

SMILES: CSC(=NN=Cc1ccc(CN2CCOCC2)cn1)[NH][Cu][Cl] [complex 6, [Cu(L^6)Cl]]
IC50 ([3]; 72 h exposure): 43000 ± 3000 nM
cellular accumulation A2780 [8]: 0.47 ± 0.08 nmol Cu/mg protein
P. aeruginosa MIC50 [1]: 200 µg/mL
P. aeruginosa MIC100 [1]: NA (NA denotes no antibacterial activity detected (>500 μg/mL))
RF (resistance factor) [4]: 1.4
IC50 [4]: 62000 ± 6000 nM
log D7.4 [5]: –0.23 ± 0.01
S. aureus MIC100 [2]: NA (NA denotes no antibacterial activity detected (>500 μg/mL))
SF (selectivity factor) [6]: 1.7
IC50 [6]: 72000 nM

Now from value to compound, other results behind:

MIC50 [1]: 70 µg/mL (≈ 228 µM)
MIC [1]: 100 µg/mL (≈ 325 µM)
logD [5]: 0.51
MIC50 [2]: 10 µg/mL (≈ 32.5 µM)
MIC [2]: 400 µg/mL (≈ 1300 µM)
SMILES: CN(C)C(=S)N/N=C/c1ccc(CN2CCOCC2)cn1 [HL^2, 5-(Morpholinomethyl)pyridine-2-carboxaldehyde 4,4-Dimethyl-3-thiosemicarbazone]
IC50 [3, 10]: 10 ± 1 nM
IC50 ([4]; Homo sapiens): 35 ± 6 nM
IC50 ([6]; Homo sapiens, HEK293): 30 ± 5 nM

MIC50 [1]: > 500 µg/mL
MIC [1]: > 500 µg/mL
logD [5]: ≥ 2
MIC50 [2]: 10 µg/mL (≈ 28.1 µM)
MIC [2]: 300 µg/mL (≈ 844 µM)
SMILES: S=C(NN=Cc1ccc(CN2CCOCC2)cn1)Nc1ccccc1 [HL^5, 5-(Morpholinomethyl)pyridine-2-carboxaldehyde 4-Phenylthiosemicarbazone]
IC50 [3, 10]: 310 ± 80 nM
IC50 ([4]; Homo sapiens): 1100 ± 200 nM
IC50 ([6]; Homo sapiens, HEK293): 670 ± 60 nM

MIC50 [1]: > 500 µg/mL
MIC [1]: > 500 µg/mL
logD [5]: 0.84
MIC50 [2]: > 500 µg/mL
MIC [2]: > 500 µg/mL
S. aureus MIC50 [2]: >500 µg/mL
SMILES: CSC(=N)NN=Cc1ccc(CN2CCOCC2)cn1 [HL^6, 5-(Morpholinomethyl)pyridine-2-carboxaldehyde S-Methylisothiosemicarbazone]
IC50 [3, 10]: 157000 ± 21000 nM
IC50 ([4]; Homo sapiens): 426000 ± 44000 nM
IC50 ([6]; Homo sapiens, HEK293): 89000 ± 2000 nM

logβ ([7]; EPR): 10.22(1)
logβ ([7]; UV-vis via CT bands): 10.42(1)
logβ ([7]; UV-vis via d-d bands): 10.45(1)
logβ ([7]; pH-metry): 10.45(4)
SMILES: NC(=NN=Cc1ccc(CN2CCOCC2)cn1)[S][Cu][OH] [[CuLH41]]

logβ ([7]; EPR): 24.00(1)
logβ ([7]; UV-vis via CT bands): 24.00(1)
logβ ([7]; UV-vis via d-d bands): 23.96(1)
logβ ([7]; pH-metry): 24.09(3)
SMILES: NC(=NN=Cc1ccc(C[NH+]2CCOCC2)cn1)[S][Cu+] [[CuLH]2+]

logβ ([7]; determined via EDTA displacement study): 19.04(2)
SMILES: NC(=NN=Cc1ccc(CN2CCOCC2)cn1)[S][Cu+] [[CuL]+]
